This note sets out measurements from paper PMC11891452, “Molecular Insights Into β‐Glucuronidase Inhibition by Alhagi Graecorum Flavonoids: A Computational and Experimental Approach” (ChemistryOpen, 2024).

Assay [1] concerns the target T1, β‐glucuronidase (Escherichia coli, UniProt P05804).
T1 construct: purchased Sigma (USA)
The assay can be described thus: in vitro β‐glucuronidase inhibition assay with PNPG as substrate. In kind it is biochemical. To be noted: pH 7.4, 37 °C, 30 min, mean±SD; for IC50: PNPG substrate; for inhibition at 10 µM: inhibitor 10 μM, PNPG 250 μM, read-out: Inhibition rate 10 μM (%). The text has this:
The substrate p‐Nitrophenyl‐β‐D‐glucuronide (PNPG) and the employed reference drug (−)‐Epigallocatechin gallate (EGCG) were purchased from Sigma‐Aldrich. For this study, β‐glucuronidase, the enzyme of interest, was purchased from Sigma (USA). All other chemicals and solvents used were in the highest purity state or HPLC grade. Five isolated flavonoids from A. graecorum were assigned for their β‐glucuronidase inhibitory efficacy. We prepared the β‐glucuronidase enzyme according to the method reported by Weng et al..[27] A 100 mM stock solution of the substrate (PNPG) was prepared using […] and stored at −20 °C for subsequent utilization. Milli‐Q water was used exclusively for both the PNPG solution and the 0.1 M phosphate buffer solution (pH 7.4).
To estimate the activities of tested flavonoids as inhibitors against β‐glucuronidase, we employed PNPG as the substrate. The assessment procedure followed well‐documented previously reported protocols.[28] In brief, 96‐well plate assays were performed (100 μL/well) to assess β‐glucuronidase inhibition by flavonoids. Each well contained: β‐glucuronidase (2 μg/mL, 10 μL), flavonoid/EGCG inhibitor (10 μM, 10 μL), PNPG substrate (250 μM, 10 μL), and PBS buffer (pH 7.4, 70 μL). Reactions were done in triplicate. Enzyme activity was estimated by tracking PNP formation (OD₄₁₀ nm) after incubation (37 °C, 30 min). A standard curve (0–120 μM PNP) was used to quantify PNP. Relative activity (%) was calculated compared to the blank control. In addition, EGCG was employed as a reference drug. IC50 assays for flavonoid inhibition of β‐glucuronidase were conducted at temperature of 37 °C for 30 minutes. Each reaction contained: β‐glucuronidase (2.0 μg/mL, 10 μL), flavonoid/EGCG (varying concentrations, 0.001–1000 μM, 10 μL), and PBS buffer (pH 7.4, 70 μL). Relative activity (%) was measured as enzyme activity with an inhibitor compared to activity without an inhibitor. A concentration‐response curve was constructed using relative activity data to determine IC50 values.
(§1) To ensure reproducibility, all data are presented as the mean value±standard deviation (SD). This reflects the average value obtained from three independent trials. IC50 values, signifying the inhibitor concentration required for half‐maximal response, were determined from the concentration‐response curves. The IC50 and inhibition constant (Ki) values were estimated using nonlinear regression by the GraphPad Prism 9.0 software.

The target of assay [2] is T1, β‐glucuronidase. Nature of the assay: inhibition kinetics (Michaelis‐Menten, Lineweaver‐Burk and slope plots) of PNPG hydrolysis. In kind it is biochemical. To be noted: for mode of inhibition: Lineweaver‐Burk plots, PNPG hydrolysis; for Ki: PNPG 200-1000 μM, from slope plots of Lineweaver‐Burk plots.
Description: To analyze the binding interactions between the tested inhibitors and the target enzyme, we constructed Michaelis‐Menten and Lineweaver‐Burk plots. These plots helped us understand how the inhibitors affect the enzyme′s kinetics. The Lineweaver‐Burk plot′s intersection point was used to identify the inhibition mode (noncompetitive, competitive, uncompetitive, or mixed). Established methods were employed to determine the specific inhibition mode and Ki values.[27, 28]
as §1

T1 sequence (P05804 whole entry): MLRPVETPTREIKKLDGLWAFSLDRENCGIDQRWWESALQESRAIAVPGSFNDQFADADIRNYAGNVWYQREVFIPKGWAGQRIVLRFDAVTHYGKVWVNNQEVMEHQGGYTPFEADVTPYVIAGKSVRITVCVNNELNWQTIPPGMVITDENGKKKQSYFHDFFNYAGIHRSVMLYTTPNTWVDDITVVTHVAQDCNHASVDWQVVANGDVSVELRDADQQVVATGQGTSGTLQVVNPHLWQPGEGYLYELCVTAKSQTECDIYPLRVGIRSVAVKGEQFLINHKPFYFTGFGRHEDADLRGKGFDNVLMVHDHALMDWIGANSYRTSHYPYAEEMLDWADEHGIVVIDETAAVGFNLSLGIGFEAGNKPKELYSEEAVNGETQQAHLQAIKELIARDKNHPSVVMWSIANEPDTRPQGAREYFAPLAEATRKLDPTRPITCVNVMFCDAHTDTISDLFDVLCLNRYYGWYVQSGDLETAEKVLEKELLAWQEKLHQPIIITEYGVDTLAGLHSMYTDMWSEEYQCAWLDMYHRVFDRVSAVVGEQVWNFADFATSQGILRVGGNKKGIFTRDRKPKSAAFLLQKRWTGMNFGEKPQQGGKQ

As a reminder, the IC50 is the concentration needed to halve the response being measured. Read a high IC50 as a need for much substance. As a reminder, the inhibition is how much of the control response was suppressed. For the molecule `COc1ccc(-c2oc3cc(O)cc(O)c3c(=O)c2O)cc1O` [tamarixetin], at β‐glucuronidase [1], the IC50 is 19.9 ± 1.23 µM and the inhibition at 10 µM is 80 ± 1.71%.
The term Ki denotes a dissociation constant, usually derived from enzyme kinetics or from competition with a known ligand. A higher Ki goes with a looser hold on the target. With `O=c1c(O)c(-c2cc(O)c(O)c(O)c2)oc2cc(O)cc(O)c12` [myricetin], at β‐glucuronidase [1], the half-inhibitory concentration (IC50) was found to be 3.95 ± 0.04 µM and the inhibition at 10 µM came out at 92.59 ± 0.56%. At β‐glucuronidase [2], the mode of inhibition entry is given as “noncompetitive” and the Ki is 3.07 µM.
Turning to `COc1cc(-c2cc(=O)c3c(O)cc(O)cc3o2)ccc1O` [chrysoeriol], the inhibition at 10 µM at β‐glucuronidase [1] stood at 87.97 ± 0.65%. Moreover, on β‐glucuronidase [2], the mode of inhibition entry was “noncompetitive”.
Regarding `COc1cc(-c2oc3cc(O)cc(O)c3c(=O)c2O)ccc1O` [isorhamnetin], at β‐glucuronidase [1], the IC50 came out at 26.4 ± 0.72 µM and the inhibition at 10 µM was 73.9 ± 1.09%.
As for `O=C(O[C@@H]1Cc2c(O)cc(O)cc2O[C@@H]1c1cc(O)c(O)c(O)c1)c1cc(O)c(O)c(O)c1` [EGCG, (−)‐Epigallocatechin gallate, reference compound], at β‐glucuronidase [1], the IC50 amounted to 3.26 ± 0.05 µM and the inhibition at 10 µM worked out at 96.14 ± 0.54%. Besides, at β‐glucuronidase [2], the mode of inhibition result was “mixed” and the Ki was determined as 1.42 µM.
On to `O=C1C[C@@H](c2ccc(O)cc2)Oc2cc(O)cc(O)c21` [naringenin], for which, at β‐glucuronidase [1], the IC50 is 52.3 ± 2.44 µM and the inhibition at 10 µM amounted to 56 ± 2.5%.
